These results are taken from patent US6686349B2, “Substituted tetracyclic pyrroloquinolone derivatives useful as phosphodiesterase inhibitors” (Ortho-McNeil Pharmaceutical, Inc., priority 2001, dated 2004).

For the first series, the target named is PDEV (UniProt O76074). In words: In vitro determination of Ki for phosphodiesterase inhibitors (PDEV). It counts as biochemical, rabbit and human tissues. Particulars: 30 nM 3H-cGMP, 30° C. for 90 minutes; Ki is equivalent to the IC50 value. How it is done:
Cyclic Nucleotide Phosphodiesterase (PDE) Assay
PDEV was isolated from rabbit and human tissues according to the protocol described by Boolell et al. (Boolell, M., Allen, M. J., Ballard, S. A., Ge[o-Attee, Muirhead, G. J., Naylor, A. M., Osterloh, I. H., and Gingell, C) in International Journal of Impotence Research 1996 8, 47-52 with minor modifications.
Briefly, rabbit or human tissues were homogenized in an ice-cold buffer solution containing 20 mM HEPES (pH 7.2), 0.25M sucrose, 1 mM EDTA, and 1 mM PMSF. The homogenates were centrifuged at 100,000 g for 60 minutes at 4° C. The supernatant was filtered through […] filter and loaded on a Pharmacia Mono Q anion exchange column (1 ml bed volume) that was equilibrated with 20 mM HEPES, 1 mM EDTA and 0.5 mM PMSF. After washing out unbound proteins, the enzymes were eluted with a linear gradient of 100-600 mM NaCl in the same buffer (35 to 50 ml total, depending on the tissue. Enzymes from the skeletal muscle, corpus cavernosum, retina, heart and platelet were eluted with 35, 40, 45, 50, and 50 ml respectively.) The column was run at a flow rate of 1 ml/min and 1 ml fractions were collected. The fractions comprising various PDE activities were pooled separately and used in later studies. […]
In Vitro Determination of Ki for Phosphodiesterase Inhibitors
The assays were adapted to a 96-well format. Phosphodiesterase was assayed in 5 mM MgCl2, 15 mM Tris HCl (pH 7.4), 0.5 mg/ml bovine serum albumin, 30 nM ^3H-cGMP and test compound at various concentrations. The amount of enzyme used for each reaction was such that less than 15% of the initial substrate was converted during the assay period. For all measurements, the test compound was dissolved and diluted in 100% DMSO (2%DMSO in assay). The total volume of the assay was 100 μl. The reaction mixture was incubated at 30° C. for 90 minutes. The reaction was stopped by boiling for 1 minute and then immediately cooled by transfer to an ice bath. To each well was then added 25 μl 1 mg/ml snake venom (Ophiophagus hannah) and the reaction mixture incubating at 30° C. for 10 minute. The reaction was stopped by the addition of 1 ml Bio-Rad AG1-X2 resin slurry (1:3). An aliquot of 200 μl was taken and counted by liquid scintillation.
The % inhibition of the maximum substrate conversion (by the enzyme in the absence of inhibitor) was calculated for each test compound concentration. Using GraphPad Prism's nonlinear regression analysis (sigmoidal dose response), the % inhibition vs log of the test compound concentration was plotted to determine the IC50. Under conditions where substrate concentration<<Km of the enzyme (Km=substrate concentration at which half of the maximal velocity of the enzyme is achieved), Ki is equivalent to the IC50 value.
Following the procedures as described in Examples 10 and 11 herein, representative compounds of the instant invention were tested for PDEV and PDEVI activity. PDEV inhibitory activities for these compounds are presented as Ki values (nM) in the Table 4.
Turning to `O=C1[C@H]2c3c([nH]c4ccccc4c3=O)[C@@H](c3ccc4c(c3)OCO4)N2C(=O)CN1Cc1ccccn1` [Compound 10, 11-Benzo{1,3]dioxol-5-yl-3-pyridin-2-ylmethyl-2,3,4a,11-tetrahydro-10H-3,10,11a-triaza-benzo[b]fluorene-1,4,5-trione], the Ki worked out at 63 nM.
On the same count and under the same terms, the value for `CN1CC(=O)N2[C@H](c3ccc4c(c3)CCO4)c3[nH]c4ccccc4c(=O)c3[C@H]2C1=O` [Compound 2, 11-(2,3-Dihydro-benzofuran-5-yl)-3-methyl-2,3,4a,11-tetrahydro-10H-3,10,11a-triaza-benzo[b]fluorene-1,4,5-trione] was 69 nM; that for `CN1CC(=O)N2[C@H](c3ccc4c(c3)CCO4)c3[nH]c4ccccc4c(=O)c3[C@@H]2C1=O` [Compound 1, 11-(2,3-Dihydro-benzofuran-5-yl)-3-methyl-2,3,4a,11-tetrahydro-10H-3,10,11a-triaza-benzo[b]fluorene-1,4,5-trione] was 7 nM.
Regarding `CN1CC(=O)N2[C@@H](c3ccc4c(c3)OCO4)c3[nH]c4ccccc4c(=O)c3[C@H]2C1=O` [Compound 3, 11-Benzo[1,3]dioxol-5-yl-3-methyl-2,3,4a,11-tetrahydro-10H-3,10,11a-triaza-benzo[b]fluorene-1,4,5-trione], the Ki was 17 nM.
With `CN1CC(=O)N2[C@@H](c3ccc4c(c3)OCO4)c3[nH]c4ccccc4c(=O)c3[C@@H]2C1=O` [Compound 4, 11-Benzo[1,3]dioxol-5-yl-3-methyl-2,3,4a,11-tetrahydro-10H-3,10,11a-triaza-benzo[b]fluorene-1,4,5-trione], the Ki came out at 80 nM.
For `CN1CCC(=O)N2[C@H](c3ccc4c(c3)OCO4)c3[nH]c4ccccc4c(=O)c3[C@@H]2C1=O` [Compound 7, 11-Benzo[1,3]dioxol-5-yl-7-methyl-5b,8,9,12-tetrahydro-7H,11H-7,10a,12-triaza-naphtho[2,3-a]azulene-5,6,10-trione], the Ki amounted to 148 nM.
Consider `CN1CC(=O)N2C(C1=O)c1c([nH]c3ccccc3c1=O)[C@H]2c1ccc2c(c1)OCO2` (stereo in doubt) [Compound 9, 11-Benzo[1,3]dioxol-5-yl-3-methyl-2,3,4a,11-tetrahydro-10H-3,10,11a-triaza-benzo[b]fluorene-1,4,5-trione], for which the Ki was found to be 48 nM.
For the molecule `O=C1[C@H]2c3c([nH]c4ccccc4c3=O)[C@@H](c3ccc4c(c3)OCO4)N2C(=O)CN1Cc1ccccc1` [Compound 5, 11-Benzo[1,3]dioxol-5-yl-3-benzyl-2,3,4a,11-tetrahydro-10H-3,10,11a-triaza-benzo[b]fluorene-1,4,5-trione], the Ki came to 123 nM.
On the same count and under the same terms, the value for `CN1CC(=O)N2[C@H](c3ccc4c(c3)OCO4)c3[nH]c4ccccc4c(=O)c3[C@@H]2C1=O` [Compound 8, 11-Benzo[1,3]dioxol-5-yl-3-methyl-2,3,4a,11-tetrahydro-10H-3,10,11a-triaza-benzo[b]fluorene-1,4,5-trione] was 14 nM.

System in a further series: not listed separately
In words: In vivo testing following the procedure of Carter et al. As to conditions: J. Urology 1998, 160, 242-246. As to the method:
Following the procedure disclosed by Carter et al., (Carter, A. J., Ballard, S. A., and Naylor, A. M.) in The Journal of Urology 1998, 160, 242-246, compound #8 was tested as active for in vivo activity.
Regarding `CN1CC(=O)N2[C@H](c3ccc4c(c3)OCO4)c3[nH]c4ccccc4c(=O)c3[C@@H]2C1=O` [Compound 8, 11-Benzo[1,3]dioxol-5-yl-3-methyl-2,3,4a,11-tetrahydro-10H-3,10,11a-triaza-benzo[b]fluorene-1,4,5-trione], the in vivo activity result was “active”.

System in a further series: not given
Experiment: not given
As to conditions: use of sildenafil; non-selective effects on a variety of tissues; cited from earlier work.
On to `CCCc1nn(C)c2c(=O)[nH]c(-c3cc(S(=O)(=O)N4CCN(C)CC4)ccc3OCC)nc12` [sildenafil, 5-[2-ethoxy-5-(4-methylpiperazin-1-ylsulphonyl)phenyl]-1-methyl-3-n-propyl-6,7-dihydro-1H-pyrazolo[4,3-d]pyrimidin-7-one], for which the undesirable side effects entry is “headache, flushing and disrupted color vision”.

By Ki is commonly meant a measure of affinity in units of concentration, obtained from inhibition or displacement.
